In US20260347335A1, “PESTICIDALLY ACTIVE CYCLIC AMINE COMPOUNDS” (SYNGENTA CROP PROTECTION AG, priority 2022, published 2026) one finds mortality data, which are given here for 3 compounds.

The assay concerns Tetranychus urticae (Two-Spotted Spider Mite). Briefly: Example B1: Tetranychus urticae (Two-Spotted Spider Mite): Feeding/Contact Activity. It is filed as in vivo. The conditions noted are these: foliar, 192 h, application rate of 200 ppm, 8 days after infestation, bean leaf discs on agar, mites of mixed ages, read-out: mortality on mixed population (mobile stages). As for the experimental part:
Example B1: Tetranychus urticae (Two-Spotted Spider Mite): Feeding/Contact Activity
Bean leaf discs on agar in 24-well microtiter plates were sprayed with aqueous test solutions prepared from 10,000 ppm DMSO stock solutions. After drying the leaf discs were infested with a mite population of mixed ages. The samples were assessed for mortality on mixed population (mobile stages) 8 days after infestation.

Where only a bound is given, the exact number is not on record here.

The mortality is the share of the test organisms that died. `CC(C)(NS(C)(=O)=O)C1CCN(C(=O)c2cc(C#N)c(OCc3ccc4c(c3)OC(F)(F)O4)nc2C(F)F)CC1` [Compound P1.1, N-[1-[1-[5-cyano-6-[(2,2-difluoro-1,3-benzodioxol-5-yl)methoxy]-2-(difluoromethyl)pyridine-3-carbonyl]-4-piperidyl]-1-methyl-ethyl]methanesulfonamide]: the mortality at 200 ppm was at least 80%.

For `CC(=O)NC1(C2CCN(C(=O)c3cc(C#N)c(OCc4ccc5c(c4)OC(F)(F)O5)nc3C(F)F)CC2)CC1` [Compound P1.6, N-[1-[1-[5-cyano-6-[(2,2-difluoro-1,3-benzodioxol-5-yl)methoxy]-2-(difluoromethyl)pyridine-3-carbonyl]-4-piperidyl]cyclopropyl]acetamide], the mortality at 200 ppm was at least 80%.

Regarding `CC(=O)NC1(C2CCN(C(=O)c3cc(C#N)c(OCc4cc(Cl)ccc4F)nc3C(F)F)CC2)CC1` [Compound P1.18, N-[1-[1-[6-[(5-chloro-2-fluoro-phenyl)methoxy]-5-cyano-2-(difluoromethyl)pyridine-3-carbonyl]-4-piperidyl]cyclopropyl]acetamide], the mortality at 200 ppm was at least 80%.
